Measured values from patent publication US20250144067A1, “PERSONALIZED STARVATION THERAPY FOR CANCER” (Faeth Therapeutics, Inc., priority 2021, published 2025).
Where a name gives a salt, the structure may show the parent alone. Read-outs that look alike come from different tables or passages of the source. Peptide text beside a SMILES is read from it.

How the values were obtained:
[1] = test system: NCI-H292 lung cancer cells; experiment: FDA drug screening, complete media vs cholesterol-free media without statin (TABLE 1); assay type: cell-based, human
[2] = test system: NCI-H292 lung cancer cells; experiment: FDA drug screening, complete media vs cholesterol-free media with simvastatin (TABLE 2); assay type: cell-based, human
[3] = Complete minus Cholesterol-free, >0 enhanced anti-cancer activity, about 0 neutral, <0 antagonist
[4] = NCI-H292 cells, cholesterol-free media without statin
[5] = NCI-H292 cells, cholesterol-free media with simvastatin 0.04 μM, FDA drug library screen (TABLE 2)
[6] = NCI-H292 cells, complete media, FDA drug library screen (TABLE 2)
[7] = complete media minus cholesterol-free media + simvastatin (0.04 μM), >0 enhanced anti-cancer activity, about 0 neutral, <0 antagonist
[8] = Complete minus Cholesterol-free, greater than 0 enhanced anti-cancer activity, about 0 neutral, below 0 antagonists
[9] = NCI-H292 cells in cholesterol-free media without statin
[10] = NCI-H292 cells in complete media
[11] = Complete minus Cholesterol-free, […]
[12] = NCI-H292 cells, cholesterol-free media without statin, FDA drug library screen
[13] = NCI-H292 cells, complete media, FDA drug library screen
[14] = complete media minus cholesterol-free media + simvastatin (0.04 μM), […]
[15] = complete vs cholesterol-free media, >0 enhanced anti-cancer activity, about 0 neutral, <0 antagonist
[16] = NCI-H292 cells, FDA drug library screen, cholesterol-free media with simvastatin 0.04 μM
[17] = NCI-H292 cells, FDA drug library screen, complete media
[18] = complete media vs cholesterol-free media + simvastatin (0.04 μM), >0 enhanced anti-cancer activity, about 0 neutral, <0 antagonist
[19] = NCI-H292 cells, drug in cholesterol-free media with simvastatin 0.04 μM
[20] = NCI-H292 cells, drug in complete media
[21] = NCI-H292 cells, cholesterol-free media with simvastatin 0.04 μM, cell growth value in FDA drug screen
[22] = NCI-H292 cells, complete media, cell growth value in FDA drug screen
[23] = complete media minus cholesterol-free media + simvastatin, >0 enhanced anti-cancer activity, about 0 neutral, <0 antagonist
[24] = NCI-H292 cells, FDA library drug in cholesterol-free media with simvastatin 0.04 μM
[25] = NCI-H292 cells, FDA library drug in complete media
[26] = Complete minus Cholesterol-free, greater than 0 enhanced anti-cancer activity, about 0 neutral, below 0 antagonist
[27] = NCI-H292 cells, FDA drug library screen, cholesterol-free media without statin
[28] = complete vs cholesterol-free media, […]
[29] = complete media vs cholesterol-free media + simvastatin (0.04 μM), […]

Compound: COC(=O)N[C@@H](C)CNc1nccc(-c2cn(C(C)C)nc2-c2cc(Cl)cc(NS(C)(=O)=O)c2F)n1 [Encorafenib]
- Difference [1, 3]: −0.19
- Cholesterol-free [1, 4]: 0.5021
- Complete ([1]; NCI-H292 cells, complete media): 0.3116
- Cholesterol-free media + simvastatin (0.04 μM) [2, 5]: 0.6063
- Complete Media [2, 6]: 0.5501
- Difference [2, 7]: −0.06

Compound: CCn1cc(C(=O)O)c(=O)c2cc(F)c(N3CCNCC3)nc21 [Enoxacin (hydrate)]
- Difference [1, 8]: −0.49
- Cholesterol-free [1, 9]: 1.532
- Complete [1, 10]: 1.045
- Cholesterol-free media + simvastatin (0.04 μM) [2, 5]: 1.166
- Complete Media [2, 6]: 1.164
- Difference [2, 7]: 0.00

Compound: O=S(=O)(O)c1ccc2[nH]c(-c3ccccc3)nc2c1 [Ensulizole]
- Difference [1, 11]: 0.07
- Cholesterol-free [1, 12]: 0.8614
- Complete [1, 13]: 0.9314
- Cholesterol-free media + simvastatin (0.04 μM) [2, 5]: 0.9021
- Complete Media [2, 6]: 0.8833
- Difference [2, 14]: −0.02

Compound: CCN(CC)C(=O)/C(C#N)=C/c1cc(O)c(O)c([N+](=O)[O-])c1 [Entacapone]
- Cholesterol-free [1, 12]: 0.7629
- Complete [1, 13]: 0.9193
- Difference [1, 15]: 0.16
- Cholesterol-free media + simvastatin (0.04 μM) [2, 16]: 1.719
- Complete Media [2, 17]: 1.579
- Difference [2, 18]: −0.14

Compound: C=C1[C@H](CO)[C@@H](O)C[C@@H]1n1cnc2c(=O)[nH]c(N)nc21 [Entecavir (monohydrate)]
- Difference [1, 8]: −0.52
- Cholesterol-free [1, 9]: 1.519
- Complete [1, 10]: 1
- Cholesterol-free media + simvastatin (0.04 μM) [2, 19]: 1.17
- Complete Media [2, 20]: 0.9716
- Difference [2, 18]: −0.20

Compound: CN1CCN(c2ccc(C(=O)Nc3n[nH]c4ccc(Cc5cc(F)cc(F)c5)cc34)c(NC3CCOCC3)c2)CC1 [Entrectinib]
- Difference [1, 3]: −0.05
- Cholesterol-free [1, 12]: 0.4371
- Complete [1, 13]: 0.3827
- Cholesterol-free media + simvastatin (0.04 μM) [2, 21]: 0.2455
- Complete Media [2, 22]: 0.2696
- Difference [2, 23]: 0.02

Compound: CNC(=O)c1ccc(N2C(=S)N(c3ccc(C#N)c(C(F)(F)F)c3)C(=O)C2(C)C)cc1F [Enzalutamide]
- Cholesterol-free [1, 12]: 0.885
- Complete [1, 13]: 1.326
- Difference [1, 15]: 0.44
- Cholesterol-free media + simvastatin (0.04 μM) [2, 24]: 0.7893
- Complete Media [2, 25]: 0.3116
- Difference [2, 18]: −0.48

Compound: CC(/C=C1\SC(=S)N(CC(=O)O)C1=O)=C\c1ccccc1 [Epalrestat]
- Difference [1, 3]: −0.29
- Cholesterol-free [1, 4]: 1.235
- Complete ([1]; NCI-H292 cells, complete media): 0.9425
- Cholesterol-free media + simvastatin (0.04 μM) [2, 16]: 0.9966
- Complete Media [2, 17]: 0.8579
- Difference [2, 18]: −0.14

Compound: CCc1ccc(C(=O)C(C)CN2CCCCC2)cc1 (centres unmarked) [Eperisone (Hydrochloride)]
- Difference [1, 26]: −0.09
- Cholesterol-free [1, 27]: 0.978
- Complete [1, 17]: 0.8889
- Cholesterol-free media + simvastatin (0.04 μM) [2, 16]: 1.323
- Complete Media [2, 17]: 1.222
- Difference [2, 18]: −0.10

Compound: NC1=NCC2c3ccccc3Cc3ccccc3N12 (centres unmarked) [Epinastine (hydrochloride)]
- Cholesterol-free [1]: 1.415
- Complete [1]: 0.8806
- Difference [1]: −0.53
- Cholesterol-free media + simvastatin (0.04 μM) [2]: 1.515
- Complete Media [2]: 1.132
- Difference [2]: −0.38

Compound: NC1=NCC2c3ccccc3Cc3ccccc3N12 (centres unmarked) [Epinastine]
- Cholesterol-free [1]: 0.9643
- Complete [1]: 0.9792
- Difference [1]: 0.01
- Cholesterol-free media + simvastatin (0.04 μM) [2]: 0.9831
- Complete Media [2]: 0.9656
- Difference [2]: −0.02

Compound: COc1cccc2c1C(=O)c1c(O)c3c(c(O)c1C2=O)C[C@@](O)(C(=O)CO)C[C@@H]3O[C@H]1C[C@H](N)[C@@H](O)[C@H](C)O1 [Epirubicin (hydrochloride)]
- Difference [1, 3]: −0.01
- Cholesterol-free [1, 12]: −0.006463
- Complete [1, 13]: −0.01887
- Cholesterol-free media + simvastatin (0.04 μM) [2, 16]: 0.1295
- Complete Media [2, 17]: −0.004785
- Difference [2, 18]: −0.13

Compound: COC(=O)[C@@H]1CC2=CC(=O)CC[C@]2(C)[C@@]23O[C@@H]2C[C@@]2(C)[C@@H](CC[C@@]24CCC(=O)O4)[C@H]13 [Eplerenone]
- Cholesterol-free [1, 12]: 1.018
- Complete [1, 13]: 1.291
- Difference [1, 15]: 0.27
- Cholesterol-free media + simvastatin (0.04 μM) [2, 19]: 1.039
- Complete Media [2, 20]: 0.8449
- Difference [2, 18]: −0.19

Compound: CCOC(CN1CCN(CC(C)C(=O)c2ccccc2)CC1)c1ccccc1 (centres unmarked) [Eprazinone (dihydrochloride)]
- Difference [1, 26]: −0.09
- Cholesterol-free [1, 27]: 1.265
- Cholesterol-free media + simvastatin (0.04 μM) [2, 5]: 0.9386
- Complete Media [2, 6]: 0.9227
- Difference [2, 7]: −0.02

Compound: CC(C)(C)NC(=O)[C@H]1CC[C@H]2[C@@H]3CC=C4C=C(C(=O)O)CC[C@]4(C)[C@H]3CC[C@]12C [Epristeride]
- Cholesterol-free [1, 12]: 0.5663
- Complete [1, 13]: 1.029
- Difference [1, 15]: 0.46
- Cholesterol-free media + simvastatin (0.04 μM) [2, 16]: 0.7018
- Complete Media [2, 17]: 0.8964
- Difference [2, 23]: 0.19

Compound: N=C(N)NCCCC[C@@H]1NC(=O)CCSSC[C@@H](C(N)=O)NC(=O)[C@@H]2CCCN2C(=O)[C@H](Cc2c[nH]c3ccccc23)NC(=O)[C@H](CC(=O)O)NC(=O)CNC1=O [Eptifibatide] (HELM PEPTIDE1{[O=C(CCS[*:3])[*:2]].[N=C(N)NCCCC[C@H](N[*:1])C(=O)[*:2]].G.D.W.P.C.[am]}$PEPTIDE1,PEPTIDE1,1:R3-7:R3$$$V2.0)
- Difference [1, 11]: −1.01
- Cholesterol-free [1, 9]: 1.974
- Complete [1, 10]: 0.9607
- Cholesterol-free media + simvastatin (0.04 μM) [2, 16]: 0.8438
- Complete Media [2, 17]: 0.9929
- Difference ([2]; complete media minus cholesterol-free media + simvastatin, […]): 0.15

Compound: CN(C)[C@@H]1C(O)=C(C(N)=O)C(=O)[C@@]2(O)C(O)=C3C(=O)c4c(O)c(NC(=O)CN5CCCC5)cc(F)c4C[C@H]3C[C@@H]12 [Eravacycline (dihydrochloride)]
- Cholesterol-free [1, 12]: 0.2139
- Complete [1, 13]: 0.4019
- Difference [1, 28]: 0.19
- Cholesterol-free media + simvastatin (0.04 μM) [2, 5]: 0.8088
- Complete Media [2, 6]: 0.7999
- Difference [2, 14]: −0.01

Compound: COc1cc(OC)cc(N(CCNC(C)C)c2ccc3ncc(-c4cnn(C)c4)nc3c2)c1 [Erdafitinib]
- Cholesterol-free [1, 12]: 0.8277
- Complete [1, 13]: 1.177
- Difference [1, 15]: 0.35
- Cholesterol-free media + simvastatin (0.04 μM) [2, 21]: 0.8898
- Complete Media [2, 22]: 0.9602
- Difference [2, 23]: 0.07

Compound: O=C(O)CSCC(=O)NC1CCSC1=O (centres unmarked) [Erdosteine]
- Difference [1, 3]: 0.06
- Cholesterol-free [1, 12]: 1.459
- Complete [1, 13]: 1.516
- Cholesterol-free media + simvastatin (0.04 μM) [2, 21]: 1.196
- Complete Media [2, 22]: 1.238
- Difference [2, 23]: 0.04

Compound: C#Cc1cccc(Nc2ncnc3cc(OCCOC)c(OCCOC)cc23)c1 [Erlotinib (Hydrochloride)]
- Cholesterol-free [1, 12]: 0.2078
- Complete [1, 13]: 0.4921
- Difference [1, 15]: 0.28
- Cholesterol-free media + simvastatin (0.04 μM) [2, 21]: 0.6388
- Complete Media [2, 22]: 0.67
- Difference [2, 23]: 0.03

Compound: C#Cc1cccc(Nc2ncnc3cc(OCCOC)c(OCCOC)cc23)c1 [Erlotinib]
- Difference [1, 26]: −0.17
- Cholesterol-free [1, 27]: 0.6096
- Complete [1, 17]: 0.4429
- Cholesterol-free media + simvastatin (0.04 μM) [2, 5]: 0.5219
- Complete Media [2, 6]: 0.4599
- Difference [2, 7]: −0.06

Compound: CCOc1ccc(Cc2cc([C@]34OC[C@](CO)(O3)[C@@H](O)[C@H](O)[C@H]4O)ccc2Cl)cc1.O=C1CC[C@@H](C(=O)O)N1 [Ertugliflozin L-pyroglutamic acid]
- Cholesterol-free [1, 12]: 1.319
- Complete [1, 13]: 1.576
- Difference [1, 28]: 0.26
- Cholesterol-free media + simvastatin (0.04 μM) [2, 19]: 1.012
- Complete Media [2, 20]: 0.8266
- Difference [2, 29]: −0.19

Compound: CCOc1ccc(Cc2cc([C@]34OC[C@](CO)(O3)[C@@H](O)[C@H](O)[C@H]4O)ccc2Cl)cc1 [Ertugliflozin]
- Difference [1, 26]: −0.08
- Cholesterol-free [1, 27]: 1.071
- Complete [1, 17]: 0.9907
- Cholesterol-free media + simvastatin (0.04 μM) [2, 21]: 1.703
- Complete Media [2, 22]: 1.808
- Difference [2, 23]: 0.10

Compound: CCOC(=O)CCC(=O)O[C@H]1[C@H](O[C@@H]2[C@@H](C)[C@H](O[C@H]3C[C@@](C)(OC)[C@@H](O)[C@H](C)O3)[C@@H](C)C(=O)O[C@H](CC)[C@@](C)(O)[C@H](O)[C@@H](C)C(=O)[C@H](C)C[C@@]2(C)O)O[C@H](C)C[C@@H]1N(C)C [Erythromycin Ethylsuccinate]
- Cholesterol-free [1, 4]: 1.248
- Complete ([1]; NCI-H292 cells, complete media): 0.8907
- Difference [1, 28]: −0.36
- Cholesterol-free media + simvastatin (0.04 μM) [2, 16]: 1.069
- Complete Media [2, 17]: 0.9797
- Difference [2, 29]: −0.09

Compound: CCC(=O)O[C@H]1[C@H](O[C@@H]2[C@@H](C)[C@H](O[C@H]3C[C@@](C)(OC)[C@@H](O)[C@H](C)O3)[C@@H](C)C(=O)O[C@H](CC)[C@@](C)(O)[C@H](O)[C@@H](C)C(=O)[C@H](C)C[C@@]2(C)O)O[C@H](C)C[C@@H]1N(C)C [Erythromycin estolate]
- Cholesterol-free [1, 12]: 0.6279
- Complete [1, 13]: 1.129
- Difference [1, 15]: 0.50
- Cholesterol-free media + simvastatin (0.04 μM) [2, 24]: 1.347
- Complete Media [2, 25]: 1.076
- Difference [2, 18]: −0.27
